Source: PubChem BioAssay AID248 (DTP/NCI, 2004)
Inconclusive results and toxic doses are left out. Cut-off read from the data, not from the text of the source: active = T/C of 150% or more; inactive = T/C below 125%.

Test system: L1210 leukemia ip in BDF1 mice, survival T/C
Experiment: NCI In Vivo Anticancer Drug Screen. Data for tumor model L1210 Leukemia (intraperitoneal) in B6D2F1 (BDF1) mice
Conditions: endpoint: mean survival time, higher = longer survival
In short: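 Survival endpoint. Drug-treated group vs vehicle group, expressed as T divided by C. Tumor passaged by transplantation.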

[1] = dose: 50.0 mg/kg/injection, schedule: Q04DX003 (ip), vehicle: Klucel (hydroxypropylcellulose) (HPC)
[2] = dose: 100.0 mg/kg/injection, schedule: Q01DX009 (ip), vehicle: Klucel (hydroxypropylcellulose) (HPC)
[3] = dose: 100.0 mg/kg/injection, schedule: Q04DX003 (ip), vehicle: Klucel (hydroxypropylcellulose) (HPC)
[4] = dose: 75.0 mg/kg/injection, schedule: Q01DX001 (ip), vehicle: saline
[5] = dose: 150.0 mg/kg/injection, schedule: Q01DX001 (ip), vehicle: saline
[6] = dose: 100.0 mg/kg/injection, schedule: Q04DX002 (ip), vehicle: Klucel (hydroxypropylcellulose) (HPC)
[7] = dose: 100.0 mg/kg/injection, schedule: Q01DX001 (ip), vehicle: saline with Tween-80
[8] = dose: 200.0 mg/kg/injection, schedule: Q01DX001 (ip), vehicle: saline with Tween-80
[9] = dose: 400.0 mg/kg/injection, schedule: Q01DX001 (ip), vehicle: saline with Tween-80
[10] = dose: 200.0 mg/kg/injection, schedule: Q04DX003 (ip), vehicle: Klucel (hydroxypropylcellulose) (HPC)
[11] = dose: 400.0 mg/kg/injection, schedule: Q04DX003 (ip), vehicle: Klucel (hydroxypropylcellulose) (HPC)
[12] = dose: 100.0 mg/kg/injection, schedule: Q01DX001 (ip), vehicle: Klucel (hydroxypropylcellulose) (HPC)
[13] = dose: 200.0 mg/kg/injection, schedule: Q01DX001 (ip), vehicle: Klucel (hydroxypropylcellulose) (HPC)
[14] = dose: 400.0 mg/kg/injection, schedule: Q01DX001 (ip), vehicle: Klucel (hydroxypropylcellulose) (HPC)
[15] = dose: 75.0 mg/kg/injection, schedule: Q04DX003 (ip), vehicle: Klucel (hydroxypropylcellulose) (HPC)
[16] = dose: 150.0 mg/kg/injection, schedule: Q04DX003 (ip), vehicle: Klucel (hydroxypropylcellulose) (HPC)
[17] = dose: 300.0 mg/kg/injection, schedule: Q04DX003 (ip), vehicle: Klucel (hydroxypropylcellulose) (HPC)

Measured: T/C

C1COC(NC2CC3CCC2C3)=N1 (stereo unspecified)
inactive: dose: 6.25 mg/kg/injection, schedule: Q01DX009 (ip), vehicle: saline with Tween-80 94 % of control | dose: 6.25 mg/kg/injection, schedule: Q04DX003 (ip), vehicle: saline with Tween-80 94 % of control | dose: 12.5 mg/kg/injection, schedule: Q01DX009 (ip), vehicle: saline with Tween-80 104 % of control | dose: 12.5 mg/kg/injection, schedule: Q04DX003 (ip), vehicle: saline with Tween-80 91 % of control | dose: 25.0 mg/kg/injection, schedule: Q01DX009 (ip), vehicle: saline with Tween-80 100 % of control | dose: 25.0 mg/kg/injection, schedule: Q04DX003 (ip), vehicle: saline with Tween-80 97 % of control

CCN(CC)CCCC#CCN1CCCCC1
inactive: dose: 25.0 mg/kg/injection, schedule: Q01DX009 (ip), vehicle: Klucel (hydroxypropylcellulose) (HPC) 100 % of control | dose: 25.0 mg/kg/injection, schedule: Q04DX003 (ip), vehicle: Klucel (hydroxypropylcellulose) (HPC) 103 % of control | dose: 50.0 mg/kg/injection, schedule: Q01DX009 (ip), vehicle: Klucel (hydroxypropylcellulose) (HPC) 101 % of control | [1] 106 % of control | [2] 102 % of control | [3] 103 % of control

C=C=CCCCC
inactive: [4] 101 % of control | dose: 75.0 mg/kg/injection, schedule: Q04DX003 (ip), vehicle: saline 112 % of control | [5] 111 % of control | dose: 150.0 mg/kg/injection, schedule: Q04DX003 (ip), vehicle: saline 104 % of control | dose: 300.0 mg/kg/injection, schedule: Q01DX001 (ip), vehicle: saline 102 % of control | dose: 300.0 mg/kg/injection, schedule: Q04DX003 (ip), vehicle: saline 101 % of control

O=C(O)c1cc(Br)cc(Cl)c1Cl
inactive: [6] 100 % of control | dose: 200.0 mg/kg/injection, schedule: Q04DX002 (ip), vehicle: Klucel (hydroxypropylcellulose) (HPC) 103 % of control

c1scc2c1COCc1cscc1-2
inactive: [7] 94 % of control | [8] 94 % of control | [9] 88 % of control

COc1ccc(NN=Nc2ccccc2C#N)cc1
inactive: [3] 106 % of control | [10] 100 % of control | [11] 108 % of control

O=C(Nc1ccc2c(c1)OCO2)N1CC1
inactive: dose: 10.0 mg/kg/injection, schedule: Q01DX009 (ip), vehicle: Klucel (hydroxypropylcellulose) (HPC) 102 % of control | dose: 20.0 mg/kg/injection, schedule: Q01DX009 (ip), vehicle: Klucel (hydroxypropylcellulose) (HPC) 92 % of control | dose: 20.0 mg/kg/injection, schedule: Q04DX003 (ip), vehicle: Klucel (hydroxypropylcellulose) (HPC) 103 % of control | dose: 40.0 mg/kg/injection, schedule: Q04DX003 (ip), vehicle: Klucel (hydroxypropylcellulose) (HPC) 113 % of control

CCCC(=O)NNC(=O)CCC
inactive: dose: 100.0 mg/kg/injection, schedule: Q04DX003 (ip), vehicle: gum acacia 106 % of control | dose: 200.0 mg/kg/injection, schedule: Q04DX003 (ip), vehicle: gum acacia 107 % of control | dose: 400.0 mg/kg/injection, schedule: Q04DX003 (ip), vehicle: gum acacia 120 % of control

c1cncc(-c2nnc(-c3cccnc3)o2)c1
inactive: dose: 12.5 mg/kg/injection, schedule: Q04DX002 (ip), vehicle: saline with Tween-80 124 % of control | dose: 50.0 mg/kg/injection, schedule: Q04DX002 (ip), vehicle: saline with Tween-80 91 % of control

NC(=O)C(O)(c1ccccc1)c1ccccc1
inactive: [7] 100 % of control | [8] 97 % of control | [9] 101 % of control

CCSCC1OC(n2ncc3c(N)ncnc32)C(O)C1O (stereo unspecified)
inactive: [12] 98 % of control | [13] 93 % of control | [14] 97 % of control

O=C1NC(=O)C2C3C=CC(C3)C12 (stereo unspecified)
inactive: dose: 50.0 mg/kg/injection, schedule: Q01DX001 (ip), vehicle: Klucel (hydroxypropylcellulose) (HPC) 101 % of control | [12] 99 % of control | [13] 101 % of control

O=C(O)CCC(=O)c1cc2ccccc2s1
inactive: [3] 92 % of control | [10] 99 % of control | [11] 99 % of control

CC1(C)N=C(N)N=C(N)N1c1cccc(OCCCOc2ccc(NC(=O)/C=C\C(=O)O)cc2)c1
inactive: dose: 100.0 mg/kg/injection, schedule: Q01DX001 (ip), vehicle: saline 102 % of control | dose: 200.0 mg/kg/injection, schedule: Q01DX001 (ip), vehicle: saline 101 % of control | dose: 400.0 mg/kg/injection, schedule: Q01DX001 (ip), vehicle: saline 102 % of control

CCCCCCCCCCCCCCCCSc1ccc(S(=O)(=O)N(C)C)cc1C(=O)O
inactive: dose: 100.0 mg/kg/injection, schedule: Q04DX003 (ip), vehicle: saline with Tween-80 98 % of control | dose: 200.0 mg/kg/injection, schedule: Q04DX003 (ip), vehicle: saline with Tween-80 91 % of control | dose: 400.0 mg/kg/injection, schedule: Q04DX003 (ip), vehicle: saline with Tween-80 89 % of control

NC(N)=NCCCC(N)C(=O)NCCCCCCNCCCCCCNC(=O)C(N)CCCN=C(N)N (stereo unspecified)
inactive: dose: 1.25 mg/kg/injection, schedule: Q01DX Z (ip), vehicle: saline 96 % of control | dose: 2.5 mg/kg/injection, schedule: Q01DX Z (ip), vehicle: saline 94 % of control | dose: 5.0 mg/kg/injection, schedule: Q01DX Z (ip), vehicle: saline 98 % of control | dose: 10.0 mg/kg/injection, schedule: Q01DX Z (ip), vehicle: saline 96 % of control

NC(N)=NC(N)=Nc1ccc(N=C(N)N=C(N)N)cc1
inactive: dose: 100.0 mg/kg/injection, schedule: Q01DX001 (ip), vehicle: other 104 % of control

COc1ccc(C(=O)C(C)C(O)(C(F)(F)F)C(F)(F)F)cc1 (stereo unspecified)
inactive: dose: 75.0 mg/kg/injection, schedule: Q01DX009 (ip), vehicle: Klucel (hydroxypropylcellulose) (HPC) 97 % of control | [3] 111 % of control | dose: 150.0 mg/kg/injection, schedule: Q01DX009 (ip), vehicle: Klucel (hydroxypropylcellulose) (HPC) 101 % of control | [10] 100 % of control | dose: 300.0 mg/kg/injection, schedule: Q01DX009 (ip), vehicle: Klucel (hydroxypropylcellulose) (HPC) 92 % of control | [11] 100 % of control

Cc1cc(C)c(-c2c(O)c(Br)c(C)c(O)c2Br)c(C)c1Br
inactive: [15] 97 % of control | [16] 97 % of control | [17] 92 % of control

CS(=O)(=O)OC1C2CCC(C2=C(c2ccccc2)c2ccccc2)C1OS(C)(=O)=O (stereo unspecified)
inactive: dose: 75.0 mg/kg/injection, schedule: Q01DX001 (ip), vehicle: carboxymethylcellulose (CMC) 93 % of control | dose: 150.0 mg/kg/injection, schedule: Q01DX001 (ip), vehicle: carboxymethylcellulose (CMC) 101 % of control | dose: 300.0 mg/kg/injection, schedule: Q01DX001 (ip), vehicle: carboxymethylcellulose (CMC) 91 % of control

Nc1ccc(S(=O)(=O)Nc2ccc(I)cc2)cc1
inactive: [2] 100 % of control | [3] 100 % of control | dose: 200.0 mg/kg/injection, schedule: Q01DX009 (ip), vehicle: Klucel (hydroxypropylcellulose) (HPC) 96 % of control | [10] 97 % of control | dose: 400.0 mg/kg/injection, schedule: Q01DX009 (ip), vehicle: Klucel (hydroxypropylcellulose) (HPC) 93 % of control | [11] 92 % of control

C/C=C/CC1(CCCC)C(=O)NC(=O)NC1=O
inactive: [4] 106 % of control | [5] 102 % of control

O=C(c1ccccc1)C12CC3CC(CC(C3)C1)C2
inactive: [15] 93 % of control | [12] 96 % of control | [16] 93 % of control | [13] 100 % of control | [17] 106 % of control | [14] 105 % of control

CC(=O)NC(N)=S
inactive: dose: 25.0 mg/kg/injection, schedule: Q04DX002 (ip), vehicle: Klucel (hydroxypropylcellulose) (HPC) 108 % of control | dose: 50.0 mg/kg/injection, schedule: Q04DX002 (ip), vehicle: Klucel (hydroxypropylcellulose) (HPC) 108 % of control | [1] 97 % of control | [6] 108 % of control | [3] 103 % of control

CC(=O)Nc1ccc(/C=N/N=C(N)N)cc1
inactive: dose: 63.0 mg/kg/injection, schedule: Q01DX Z (ip), vehicle: carboxymethylcellulose (CMC) 88 % of control | dose: 125.0 mg/kg/injection, schedule: Q01DX Z (ip), vehicle: carboxymethylcellulose (CMC) 100 % of control
